# According to patent US6506373B1, “Agent and method for permanent waving” (Wella Aktiengesellschaft, priority 1998, dated 2003):
# Experiments:
# [1] = Permanent waving application test: reductive treatment, then fixing with the ready-for-use fixative; conditions: hair reduced with 10% thioglycolic acid solution pH 8.2, then fixed
# Method: In these examples, the hair was treated reductively in each case in the following manner:
# The solution was allowed to act for 15 minutes. The reducing agent acted at a temperature of 50° C.
# At the end of the period of action, the excess permanent waving solution was rinsed out with water and the fixing solution was then applied with a sponge. The fixing solution is prepared 2 minutes before use by dissolving component 1 in component 2.
# The hair is fixed for 30 minutes at 22° C. and subsequently rinsed with water. The curlers are then removed and the hair is rinsed with lukewarm water. Finally, the hair is styled and then dried.
# [2] = Bundle tensile strength of permanently waved and fixed hair
# Method: The amount of permanent waving liquid was calculated from the ratio 1:1.2 (1 g of hair to 1.2 g of permanent waving liquid). The amount of 1.2 ml to 1 g of hair corresponds to an amount of 50 ml of permanent waving solution per head with an average weight of […] of hair per head. This solution was allowed to act for 15 minutes; the temperature of the reducing agent acting was 50° C. The permanent waving agent, based on thioglycolic acid, was rinsed out well with water (2 to 3 minutes). Subsequently, the hair strands were in each case moistened intensively with the respective ready-for-use fixative. This procedure was repeated three or six times, in that the strands, after each treatment, was suspended for six hours in the water bath.
# The tensile strength of the bundles, which are a measure of the preservation of the hair, were determined using individual strands of hair.
# [3] = cited from earlier work
Compound,brightening of the hair (shift in color) [1],increase in hair damage on repeated use (bundle tensile strength after three vs six treatments) [2],stability in aqueous solution [3]
"OO [Peroxide, hydrogen peroxide]",clearly detectable shift in coloring the direction of red and yellow,,
"O=C1O[C@H]([C@@H](O)CO)C(=O)C1=O [Dehydroascorbic Acid, dehydroascorbic acid]",,no increase in hair damage,unstable and decomposes within a few hours
